Experimental data published in ChEMBL document CHEMBL4630906, “Data for DCP probe BAY-3153” (2021).
Active and inactive are the calls of the source.

Assays:
[1] = molecular target: T1, Kappa-type opioid receptor (Homo sapiens, UniProt P41145); test: GPCRScan assay: inhibition of KOR; set-up: radioligand conc. used [nm] 0.6 – 1.2, parental cells stable HEK
[2] = GPCRScan assay: inhibition of GABA/PBR; set-up: species or system Rattus norvegicus; radioligand conc. used [nm] 0.3 – 2.0, parental cells brain tissue
[3] = molecular target: T2, Sigma intracellular receptor 2 (Homo sapiens, UniProt Q5BJF2); test: GPCRScan assay: inhibition of Sigma 2; set-up: radioligand conc. used [nm] 5.0, parental cells HEKT
T2 sequence (Q5BJF2 whole entry): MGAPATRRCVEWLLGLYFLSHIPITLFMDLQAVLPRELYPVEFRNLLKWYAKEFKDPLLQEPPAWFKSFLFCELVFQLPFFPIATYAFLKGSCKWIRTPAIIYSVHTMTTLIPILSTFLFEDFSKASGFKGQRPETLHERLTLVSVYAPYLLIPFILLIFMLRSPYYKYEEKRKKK

[4] = molecular target: T3, Sigma non-opioid intracellular receptor 1 (Homo sapiens, UniProt Q99720); test: GPCRScan assay: inhibition of Sigma 1; set-up: radioligand conc. used [nm] 4.0 – 5.0, parental cells HEKT
T3 sequence (Q99720 whole entry): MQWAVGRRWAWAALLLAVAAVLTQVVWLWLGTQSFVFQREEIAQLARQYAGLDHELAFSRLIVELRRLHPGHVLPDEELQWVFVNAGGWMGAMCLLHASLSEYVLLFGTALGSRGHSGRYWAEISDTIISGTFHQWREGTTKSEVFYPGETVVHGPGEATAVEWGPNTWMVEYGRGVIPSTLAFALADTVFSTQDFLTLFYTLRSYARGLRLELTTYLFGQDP

[5] = molecular target: C-C chemokine receptor type 1 (Homo sapiens, UniProt P32246); test: CCR1 cellular Ca2+-flux assay; assay type: functional
Sequence of C-C chemokine receptor type 1 (P32246 whole entry): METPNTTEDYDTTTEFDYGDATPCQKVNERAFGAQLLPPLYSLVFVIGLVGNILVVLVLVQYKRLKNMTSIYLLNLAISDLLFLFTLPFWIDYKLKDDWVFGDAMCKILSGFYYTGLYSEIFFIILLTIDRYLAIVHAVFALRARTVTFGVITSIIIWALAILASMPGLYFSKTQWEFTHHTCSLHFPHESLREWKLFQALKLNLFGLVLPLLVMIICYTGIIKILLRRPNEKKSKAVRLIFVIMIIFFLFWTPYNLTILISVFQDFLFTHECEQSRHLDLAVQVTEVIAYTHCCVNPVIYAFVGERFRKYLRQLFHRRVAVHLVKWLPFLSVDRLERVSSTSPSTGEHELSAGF

[6] = molecular target: 5-hydroxytryptamine receptor 1A (Homo sapiens) (UniProt P08908); settings: Compound concentration 10.0 uM
[7] = molecular target: 5-hydroxytryptamine receptor 1B (Homo sapiens) (UniProt P28222); settings: Compound concentration 10.0 uM
Sequence of 5-hydroxytryptamine receptor 1B (Homo sapiens) (P28222 whole entry): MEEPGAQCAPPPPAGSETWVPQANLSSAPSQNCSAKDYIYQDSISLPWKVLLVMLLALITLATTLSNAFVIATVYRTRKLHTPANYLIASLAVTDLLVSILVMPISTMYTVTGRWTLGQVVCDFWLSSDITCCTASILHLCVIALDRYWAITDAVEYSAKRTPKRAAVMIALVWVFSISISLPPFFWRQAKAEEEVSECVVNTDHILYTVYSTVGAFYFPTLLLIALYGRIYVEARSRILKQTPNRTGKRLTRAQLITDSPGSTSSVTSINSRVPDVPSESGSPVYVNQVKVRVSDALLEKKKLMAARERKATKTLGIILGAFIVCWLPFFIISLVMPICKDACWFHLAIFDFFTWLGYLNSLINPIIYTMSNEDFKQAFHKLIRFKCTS

[8] = molecular target: 5-hydroxytryptamine receptor 1D (Homo sapiens) (UniProt P28221); settings: Compound concentration 10.0 uM
Sequence of 5-hydroxytryptamine receptor 1D (Homo sapiens) (P28221 whole entry): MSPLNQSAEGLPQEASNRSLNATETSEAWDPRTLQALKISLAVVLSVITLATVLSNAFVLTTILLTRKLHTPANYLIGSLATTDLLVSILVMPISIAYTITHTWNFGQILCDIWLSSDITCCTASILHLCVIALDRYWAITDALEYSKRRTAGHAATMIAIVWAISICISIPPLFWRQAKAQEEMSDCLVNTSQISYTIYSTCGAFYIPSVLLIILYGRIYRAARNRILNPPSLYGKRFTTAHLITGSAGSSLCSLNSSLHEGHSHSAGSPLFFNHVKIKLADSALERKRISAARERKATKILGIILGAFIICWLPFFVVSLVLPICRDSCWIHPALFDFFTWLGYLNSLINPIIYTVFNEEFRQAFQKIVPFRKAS

[9] = molecular target: 5-hydroxytryptamine receptor 2A (Homo sapiens) (UniProt P28223); settings: Compound concentration 10.0 uM
Sequence of 5-hydroxytryptamine receptor 2A (Homo sapiens) (P28223 whole entry): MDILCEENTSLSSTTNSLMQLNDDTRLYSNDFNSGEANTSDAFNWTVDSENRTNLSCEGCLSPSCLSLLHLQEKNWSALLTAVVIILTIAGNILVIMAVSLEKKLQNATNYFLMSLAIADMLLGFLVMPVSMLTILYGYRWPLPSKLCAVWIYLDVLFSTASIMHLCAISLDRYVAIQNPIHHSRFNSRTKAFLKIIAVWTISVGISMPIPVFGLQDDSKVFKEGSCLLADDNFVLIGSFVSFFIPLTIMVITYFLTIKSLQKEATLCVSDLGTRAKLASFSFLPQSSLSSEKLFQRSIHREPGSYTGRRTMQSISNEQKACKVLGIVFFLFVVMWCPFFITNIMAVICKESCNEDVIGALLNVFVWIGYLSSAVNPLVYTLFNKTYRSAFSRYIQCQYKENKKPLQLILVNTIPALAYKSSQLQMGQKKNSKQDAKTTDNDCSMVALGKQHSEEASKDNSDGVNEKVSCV

[10] = molecular target: 5-hydroxytryptamine receptor 2B (Homo sapiens) (UniProt P41595); settings: Compound concentration 10.0 uM
[11] = molecular target: 5-hydroxytryptamine receptor 2C (Homo sapiens) (UniProt P28335); settings: Compound concentration 10.0 uM
[12] = molecular target: 5-hydroxytryptamine receptor 3A (Homo sapiens) (UniProt P46098); settings: Compound concentration 10.0 uM
[13] = molecular target: 5-hydroxytryptamine receptor 5A (Homo sapiens) (UniProt P47898); settings: Compound concentration 10.0 uM
[14] = molecular target: 5-hydroxytryptamine receptor 6 (Homo sapiens) (UniProt P50406); settings: Compound concentration 10.0 uM
[15] = molecular target: D(1A) dopamine receptor (Homo sapiens) (UniProt P21728); settings: Compound concentration 10.0 uM
[16] = molecular target: D(2) dopamine receptor (Homo sapiens) (UniProt P14416); settings: Compound concentration 10.0 uM
[17] = molecular target: D(3) dopamine receptor (Homo sapiens) (UniProt P35462); settings: Compound concentration 10.0 uM
[18] = molecular target: D(4) dopamine receptor (Homo sapiens) (UniProt P21917); settings: Compound concentration 10.0 uM
[19] = molecular target: D(1B) dopamine receptor (Homo sapiens) (UniProt P21918); settings: Compound concentration 10.0 uM
Sequence of D(1B) dopamine receptor (Homo sapiens) (P21918 whole entry): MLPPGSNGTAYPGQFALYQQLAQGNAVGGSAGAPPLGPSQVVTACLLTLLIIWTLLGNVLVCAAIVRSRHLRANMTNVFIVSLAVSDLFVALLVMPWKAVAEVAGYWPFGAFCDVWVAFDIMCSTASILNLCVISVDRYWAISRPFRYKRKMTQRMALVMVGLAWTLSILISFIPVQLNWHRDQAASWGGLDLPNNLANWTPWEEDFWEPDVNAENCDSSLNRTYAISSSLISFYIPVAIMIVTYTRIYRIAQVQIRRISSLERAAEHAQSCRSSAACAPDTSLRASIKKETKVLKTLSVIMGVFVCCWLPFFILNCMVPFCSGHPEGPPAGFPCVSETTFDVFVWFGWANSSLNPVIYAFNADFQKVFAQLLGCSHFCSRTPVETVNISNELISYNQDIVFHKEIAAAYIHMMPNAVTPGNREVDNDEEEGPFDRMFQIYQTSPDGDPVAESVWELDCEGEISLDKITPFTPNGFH

[20] = molecular target: T4, Sodium-dependent serotonin transporter (Homo sapiens, UniProt P31645); settings: Compound concentration 10.0 uM
[21] = molecular target: Sodium-dependent noradrenaline transporter (Homo sapiens) (UniProt P23975); settings: Compound concentration 10.0 uM
[22] = molecular target: Sodium-dependent dopamine transporter (Homo sapiens) (UniProt Q01959); settings: Compound concentration 10.0 uM
[23] = molecular target: Mu-type opioid receptor (Homo sapiens) (UniProt P35372); settings: Compound concentration 10.0 uM
[24] = molecular target: Delta-type opioid receptor (Homo sapiens) (UniProt P41143); settings: Compound concentration 10.0 uM
[25] = molecular target: T1, Kappa-type opioid receptor; settings: Compound concentration 10.0 uM
[26] = molecular target: T5, GABA-A receptor; anion channel (Rattus norvegicus) (UniProt O09028+P15431+P18506+P18508+P19969+P20236+P23574+P23576+P28471+P28473+P30191+P62813+P63079+P63138+Q91ZM7+Q9ES14); settings: Compound concentration 10.0 uM
[27] = molecular target: Histamine H1 receptor (Homo sapiens) (UniProt P35367); settings: Compound concentration 10.0 uM
[28] = molecular target: Histamine H2 receptor (Homo sapiens) (UniProt P25021); settings: Compound concentration 10.0 uM
[29] = molecular target: Histamine H3 receptor (Homo sapiens) (UniProt Q9Y5N1); settings: Compound concentration 10.0 uM
Sequence of Histamine H3 receptor (Homo sapiens) (Q9Y5N1 whole entry): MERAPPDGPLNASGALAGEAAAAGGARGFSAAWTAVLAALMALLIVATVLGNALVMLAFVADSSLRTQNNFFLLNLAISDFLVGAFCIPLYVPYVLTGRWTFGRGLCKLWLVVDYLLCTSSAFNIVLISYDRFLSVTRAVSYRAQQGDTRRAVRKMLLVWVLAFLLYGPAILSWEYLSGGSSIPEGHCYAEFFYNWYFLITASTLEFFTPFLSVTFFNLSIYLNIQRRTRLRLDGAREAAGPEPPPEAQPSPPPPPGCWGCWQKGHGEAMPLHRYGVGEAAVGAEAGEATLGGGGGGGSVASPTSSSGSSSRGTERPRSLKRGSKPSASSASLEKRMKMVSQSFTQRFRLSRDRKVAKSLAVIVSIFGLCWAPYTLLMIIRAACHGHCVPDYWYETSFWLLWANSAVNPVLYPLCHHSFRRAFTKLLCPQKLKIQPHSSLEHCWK

[30] = molecular target: Alpha-1A adrenergic receptor (Homo sapiens) (UniProt P35348); settings: Compound concentration 10.0 uM
Sequence of Alpha-1A adrenergic receptor (Homo sapiens) (P35348 whole entry): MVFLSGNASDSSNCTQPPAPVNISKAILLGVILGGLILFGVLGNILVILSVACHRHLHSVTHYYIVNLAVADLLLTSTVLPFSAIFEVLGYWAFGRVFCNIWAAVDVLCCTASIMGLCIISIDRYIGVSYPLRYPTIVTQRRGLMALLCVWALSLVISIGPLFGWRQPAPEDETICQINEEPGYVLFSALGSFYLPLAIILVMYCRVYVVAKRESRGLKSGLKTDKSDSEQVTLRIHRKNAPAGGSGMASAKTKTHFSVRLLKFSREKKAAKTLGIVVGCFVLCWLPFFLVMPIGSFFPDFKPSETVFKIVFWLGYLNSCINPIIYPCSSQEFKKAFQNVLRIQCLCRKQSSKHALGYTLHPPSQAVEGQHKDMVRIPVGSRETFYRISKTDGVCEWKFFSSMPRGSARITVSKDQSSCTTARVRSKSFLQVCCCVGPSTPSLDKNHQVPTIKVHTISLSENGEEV

[31] = molecular target: Alpha-2C adrenergic receptor (Homo sapiens) (UniProt P18825); settings: Compound concentration 10.0 uM
[32] = molecular target: Beta-2 adrenergic receptor (Homo sapiens) (UniProt P07550); settings: Compound concentration 10.0 uM
[33] = molecular target: Muscarinic acetylcholine receptor M1 (Homo sapiens) (UniProt P11229); settings: Compound concentration 10.0 uM
[34] = molecular target: Muscarinic acetylcholine receptor M2 (Homo sapiens) (UniProt P08172); settings: Compound concentration 10.0 uM
Sequence of Muscarinic acetylcholine receptor M2 (Homo sapiens) (P08172 whole entry): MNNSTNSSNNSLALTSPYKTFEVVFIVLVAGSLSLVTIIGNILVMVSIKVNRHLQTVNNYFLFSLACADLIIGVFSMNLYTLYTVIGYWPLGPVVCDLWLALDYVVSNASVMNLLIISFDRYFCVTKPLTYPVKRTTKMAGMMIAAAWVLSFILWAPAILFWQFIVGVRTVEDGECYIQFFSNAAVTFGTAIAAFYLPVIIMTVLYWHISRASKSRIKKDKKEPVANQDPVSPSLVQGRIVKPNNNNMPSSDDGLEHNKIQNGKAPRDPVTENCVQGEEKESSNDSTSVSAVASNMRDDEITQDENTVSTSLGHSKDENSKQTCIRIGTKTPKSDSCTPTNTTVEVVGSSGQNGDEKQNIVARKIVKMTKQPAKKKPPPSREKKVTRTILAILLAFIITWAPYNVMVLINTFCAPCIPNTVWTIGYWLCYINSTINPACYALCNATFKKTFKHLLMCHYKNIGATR

[35] = molecular target: Muscarinic acetylcholine receptor M3 (Homo sapiens) (UniProt P20309); settings: Compound concentration 10.0 uM
[36] = molecular target: Muscarinic acetylcholine receptor M4 (Homo sapiens) (UniProt P08173); settings: Compound concentration 10.0 uM
[37] = molecular target: Muscarinic acetylcholine receptor M5 (Homo sapiens) (UniProt P08912); settings: Compound concentration 10.0 uM
[38] = molecular target: Beta-3 adrenergic receptor (Homo sapiens) (UniProt P13945); settings: Compound concentration 10.0 uM
[39] = molecular target: T5, GABA-A receptor; anion channel (Rattus norvegicus); settings: Compound concentration 10.0 uM; remark: listed apart in the source
[40] = organism: Rattus norvegicus; settings: Compound concentration 10.0 uM
[41] = molecular target: Alpha-1D adrenergic receptor (Homo sapiens) (UniProt P25100); settings: Compound concentration 10.0 uM
Sequence of Alpha-1D adrenergic receptor (Homo sapiens) (P25100 whole entry): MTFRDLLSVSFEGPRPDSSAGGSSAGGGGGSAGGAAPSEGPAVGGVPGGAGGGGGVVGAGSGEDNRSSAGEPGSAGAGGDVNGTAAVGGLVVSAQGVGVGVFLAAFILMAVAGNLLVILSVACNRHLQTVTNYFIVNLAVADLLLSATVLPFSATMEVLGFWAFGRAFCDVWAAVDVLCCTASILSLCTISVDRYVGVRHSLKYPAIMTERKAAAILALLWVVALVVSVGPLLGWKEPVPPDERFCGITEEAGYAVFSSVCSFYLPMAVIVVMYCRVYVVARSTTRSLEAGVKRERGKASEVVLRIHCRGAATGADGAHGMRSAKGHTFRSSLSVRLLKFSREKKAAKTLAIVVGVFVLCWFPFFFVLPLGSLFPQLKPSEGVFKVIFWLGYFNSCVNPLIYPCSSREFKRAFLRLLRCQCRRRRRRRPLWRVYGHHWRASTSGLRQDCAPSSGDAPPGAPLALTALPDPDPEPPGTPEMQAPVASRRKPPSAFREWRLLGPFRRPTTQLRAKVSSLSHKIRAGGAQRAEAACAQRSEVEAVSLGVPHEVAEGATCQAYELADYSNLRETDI

[42] = molecular target: T2, Sigma intracellular receptor 2; settings: Compound concentration 10.0 uM
[43] = molecular target: T3, Sigma non-opioid intracellular receptor 1; settings: Compound concentration 10.0 uM
[44] = molecular target: D(4) dopamine receptor (Homo sapiens, UniProt P21917); test: GPCRScan assay: inhibition of D4; set-up: radioligand conc. used [nm] 0.6 – 1.7, parental cells Stable HEK
[45] = molecular target: T4, Sodium-dependent serotonin transporter; test: GPCRScan assay: inhibition of SERT; set-up: radioligand conc. used [nm] 1.5 – 2.0, parental cells stable HEK
[46] = molecular target: Alpha-2B adrenergic receptor (Homo sapiens, UniProt P18089); test: GPCRScan assay: inhibition of Alpha2B; set-up: radioligand conc. used [nm] 1.5 – 2.0, parental cells HEKT
[47] = molecular target: Histamine H4 receptor (Homo sapiens) (UniProt Q9H3N8); settings: Compound concentration 10.0 uM
[48] = molecular target: Alpha-1B adrenergic receptor (Homo sapiens) (UniProt P35368); settings: Compound concentration 10.0 uM
[49] = molecular target: Alpha-2A adrenergic receptor (Homo sapiens) (UniProt P08913); settings: Compound concentration 10.0 uM
[50] = molecular target: Beta-1 adrenergic receptor (Homo sapiens) (UniProt P08588); settings: Compound concentration 10.0 uM

T1 sequence (P41145 whole entry): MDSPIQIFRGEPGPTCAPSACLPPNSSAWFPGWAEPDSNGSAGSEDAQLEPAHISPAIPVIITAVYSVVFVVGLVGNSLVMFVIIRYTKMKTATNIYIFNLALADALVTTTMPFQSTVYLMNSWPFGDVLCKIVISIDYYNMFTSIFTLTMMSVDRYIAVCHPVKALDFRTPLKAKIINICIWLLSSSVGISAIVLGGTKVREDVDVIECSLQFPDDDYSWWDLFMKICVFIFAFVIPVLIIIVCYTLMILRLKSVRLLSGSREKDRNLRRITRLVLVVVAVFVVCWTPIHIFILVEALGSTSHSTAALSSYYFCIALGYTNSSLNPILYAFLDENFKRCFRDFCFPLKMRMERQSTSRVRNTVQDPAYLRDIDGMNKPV

CCOc1cc(N2C3COCC2CN(C(=O)[C@H]2C[C@H](O)CN2c2ccc(Cl)cc2)C3)ccc1Cl [BAY-3153]
inactive: inhibition [6] -9.03% | inhibition [7] -2.86% | inhibition [8] -2.08% | inhibition [9] 6.74% | inhibition [10] 10.5% | inhibition [11] 4.08% | inhibition [12] -1.97% | inhibition [13] 1.7% | inhibition [14] -8.16% | inhibition [15] 40.3% | inhibition [16] 7.26% | inhibition [17] 1.58% | inhibition [18] 15.5% | inhibition [19] 2.54% | inhibition [20] 33.4% | inhibition [21] 1.24% | inhibition [22] 3.92% | inhibition [23] 5.82% | inhibition [24] 10.3% | inhibition [26] 18.6% | inhibition [27] 11.2% | inhibition [28] 27.7% | inhibition [29] 17.3% | inhibition [30] 17% | inhibition [31] 2.17% | inhibition [32] -4.63% | inhibition [33] -5.67% | inhibition [34] 8.64% | inhibition [35] 8.61% | inhibition [36] -3.29% | inhibition [37] -4.29% | inhibition [38] -5.38% | inhibition [39] -6.17% | inhibition [41] 7.09%
5.74: pKi [2]
1.83 µM: Ki [4]
1.48 µM: Ki [3]
1.81 µM: Ki [2]
3.01 µM: Ki [1]
active: IC50 [5] 0.003 µM | inhibition [25] 53.6% | inhibition [40] 54.2% | inhibition [42] 83.6% | inhibition [43] 85%

O=C([C@H]1C[C@H](O)CN1c1ccc(Cl)cc1)N1CC2COCC(C1)N2Cc1ccc(Cl)cc1 [BAY-173]
2.17 µM: Ki [3]
active: inhibition [18] 51.5% | inhibition [20] 70.3% | inhibition [42] 76.5% | inhibition [43] 69.5%
10 µM: Ki [44] | Ki [46]
8.25 µM: Ki [4]
1.46 µM: Ki [45]
inactive: inhibition [7] -6.45% | inhibition [8] -7.5% | inhibition [9] 7.31% | inhibition [10] 14.8% | inhibition [11] -2.02% | inhibition [12] -7.03% | inhibition [13] -1.82% | inhibition [14] 5.38% | inhibition [17] 2.75% | inhibition [19] 6.84% | inhibition [21] -4.52% | inhibition [23] 4.45% | inhibition [25] 18.7% | inhibition [26] 20% | inhibition [27] 14.3% | inhibition [28] 8.13% | inhibition [29] 9.39% | inhibition [47] -3.31% | inhibition [30] 7.02% | inhibition [48] 0.94% | inhibition [49] 11.3% | inhibition [31] 14.4% | inhibition [50] 6.12% | inhibition [32] -7.55% | inhibition [33] -3.85% | inhibition [34] 1.89% | inhibition [35] 24.1% | inhibition [36] -6.12% | inhibition [37] -1.65% | inhibition [38] -9.84% | inhibition [39] 0.65% | inhibition [40] -8.33% | inhibition [41] -7.34%
1.2 µM (not active): IC50 [5]
